Measured values published in the NIST ThermoML archive (doi:10.1021/je700329a).
“And” between values parts separate entries of the source, which are not always exact repeats. Equal values may be shown once.

Tests used:
[1] = wn = mass fraction of the nth substance listed; settings: 101 kPa, Liquid; for electrical conductivity: Alternating current cell with electrodes; for kinematic viscosity: Capillary tube (Ostwald / Ubbelohde) method; for speed of sound: Pulse-echo method; for mass density: Vibrating tube method
[2] = 101.33 kPa, Liquid; for viscosity: Stabinger Viscometer; for mass density: Vibrating tube method; for speed of sound: DSA 5000; for electrical conductivity: Alternating current cell with electrodes

CCCCCC[n+]1ccn(C)c1.O=S(=O)([N-]S(=O)(=O)C(F)(F)F)C(F)(F)F + O
[1]
Settings | electrical conductivity [S/m] | kinematic viscosity [m2/s] | mass density [kg/m3] | speed of sound [m/s]
288.15 K, w2 = 1e-05 | 0.135 | – | – | –
288.15 K, w2 = 0.00094 | 0.142 | – | – | –
293.15 K, w2 = 1e-05 | 0.173 | – | – | –
293.15 K, w2 = 2e-05 | – | 6.53e-05 | – | –
293.15 K, w2 = 0.00094 | 0.18 | – | – | –
293.15 K, w2 = 0.0011 | – | 6.16e-05 | – | –
293.15 K, w2 = 0.00727 | 0.232 | – | – | –
293.15 K, w2 = 0.00784 | 0.237 | – | – | –
293.15 K, w2 = 0.0082 | – | 4.55e-05 | – | –
293.15 K, w2 = 0.00898 | 0.246 | – | – | –
298.15 K, w2 = 1e-05 | 0.218 | 5.12e-05 | – | –
298.15 K, w2 = 2e-05 | – | 5.13e-05 | – | –
298.15 K, w2 = 3.5e-05 | – | – | 1372.07 | 1226.6
298.15 K, w2 = 0.00094 | 0.227 | – | – | –
298.15 K, w2 = 0.00102 | – | – | 1370.45 | –
298.15 K, w2 = 0.00106 | – | – | – | 1227.4
298.15 K, w2 = 0.00112 | – | 4.85e-05 | – | –
298.15 K, w2 = 0.00722 | – | – | 1367.04 | –
298.15 K, w2 = 0.00727 | 0.289 | – | – | –
298.15 K, w2 = 0.007315 | – | – | – | 1230.3
298.15 K, w2 = 0.00784 | 0.295 | – | – | –
298.15 K, w2 = 0.00819 | – | 3.63e-05 | – | –
298.15 K, w2 = 0.00898 | 0.306 | – | – | –
308.15 K, w2 = 1e-05 | 0.328 | – | – | –
308.15 K, w2 = 0.00094 | 0.34 | – | – | –
323.15 K, w2 = 1e-05 | 0.548 | – | – | –
323.15 K, w2 = 0.00094 | 0.566 | – | – | –

CCCCCC[n+]1ccn(C)c1.O=S(=O)([N-]S(=O)(=O)C(F)(F)F)C(F)(F)F
[2]
Settings | electrical conductivity [S/m] | mass density | speed of sound | viscosity
258.15 K | – | 1407.6 kg/m3 | – | 941.8 mPa·s
263.15 K | – | 1403.1 kg/m3 | – | 612.7 mPa·s
268.15 K | – | 1398.5 kg/m3 | – | 417.4 mPa·s
273.15 K | – | 1394 kg/m3 | – | 291.2 mPa·s
278.15 K | – | 1389.5 kg/m3 | – | 207.6 mPa·s
283.15 K | – | 1385 kg/m3 and 1385.9 kg/m3 and 1386 kg/m3 | 1262 m/s and 1262.4 m/s | 153.3 mPa·s
288.15 K | 0.135 | 1380.5 kg/m3 | – | 115.8 mPa·s
293.15 K | 0.173 | 1376.7 kg/m3 [middle of 4 runs] | 1238.4 m/s and 1238.5 m/s | 89.54 mPa·s and 89.26 mPa·s
298.15 K | 0.218 | 1372.1 kg/m3 [middle of 4 runs] | 1226.8 m/s and 1226.9 m/s | 70.09 mPa·s and 70.29 mPa·s
303.15 K | – | 1367.3 kg/m3 and 1367.5 kg/m3 and 1367.6 kg/m3 | 1215.5 m/s and 1215.6 m/s | 56.11 mPa·s
308.15 K | 0.328 | – | – | –
313.15 K | – | 1358.3 kg/m3 and 1358.4 kg/m3 | 1193.3 m/s and 1193.4 m/s | 37.41 mPa·s
323.15 K | 0.548 | 1349.3 kg/m3 and 1349.4 kg/m3 | 1171.5 m/s and 1171.6 m/s | 26.25 mPa·s
333.15 K | – | 1340.3 kg/m3 and 1340.4 kg/m3 | 1149.8 m/s and 1150.4 m/s | 19.22 mPa·s
343.15 K | – | 1331.3 kg/m3 and 1331.4 kg/m3 | 1128.4 m/s and 1129.6 m/s | 14.58 mPa·s
353.15 K | – | 1322.5 kg/m3 | – | 11.38 mPa·s
363.15 K | – | 1313.6 kg/m3 | – | 9.128 mPa·s
373.15 K | – | 1304.8 kg/m3 | – | 7.463 mPa·s
